In publication PMC6273963, “Design, Synthesis, and Biological Evaluation of Some Novel Pyrrolizine Derivatives as COX Inhibitors with Anti-Inflammatory/Analgesic Activities and Low Ulcerogenic Liability” (Molecules, 2016):
Entries after “also recorded” stand apart in the source; their conditions may differ. Values belong to the compound of their own block, whether it stands above or below them.

Key:
[1] = system: thermal pain (hot plate); assay: Hot-plate test (analgesic activity); assay type: in vivo, rat; conditions: IP; for analgesic potency relative to ibuprofen: 0.48 mmol/kg; for analgesic activity (in words): 0.24 and 0.48 mmol/kg, 2 h after injection, compared with ibuprofen
Protocol: A hot-plate was used to induce thermal pain and the cutoff time was fixed to 15 s [30]. […] The analgesic activity of the novel pyrrolizines were carried out using the thermal model (hot-plate test) according to a previous report [30]. An electronically controlled hot-plate (Harvard Apparatus Ltd., Kent, UK) was used and the cut-off time was 15 s and the temperature was adjusted to 52 ± 0.1 °C. Animals were then divided into groups of six animal each. Rats were assigned numbers of 1–6 in each group. The reference drug was given intraperitoneally at a dose of 50 mg/kg (0.24 mmol/kg) and 100 mg/kg (0.48 mmol/kg). […] The response latencies (time elapsed until licking paw or jumping) were measured and expressed as mean ± SEM. The percent changes (analgesic effects) of the tested compounds were calculated as percent change in latencies divided by baseline time (100 × (T1 − T0)/T0) and results were expressed as % change ± SEM, Figure 6.

[2] = system: stomach mucosa, submucosa and mucosal glands; assay: Histopathological study of rat stomach; assay type: in vivo; conditions: rats of the ulcerogenicity test, haematoxylin and eosin stain
Description: The stomachs of the rats used in ulcerogenicity test were subjected to a histopathological study to visualize the deep effects of ibuprofen and tested compounds on the stomach mucosa, submucosa and mucosal glands. The specimens were stained with haematoxylin and eosin stain [33].
The study investigated the deep effect of the tested compounds on the mucosa, submucosa and mucosal gland. The stomachs which were opened longitudinally along the greater curvature were used and the specimens were taken from the stomachs of all cases. These specimens were fixed in 10% formalin solution for 72 h. The samples were processed and embedded in paraffin wax. Microtomy was done and 5 microns tissue sections were obtained and mounted on clean glass slides.

[3] = system: carrageenan-induced rat paw edema; assay: Carrageenan-induced rat paw edema model (anti-inflammatory activity); assay type: in vivo; parameters: key to Potency (anti-inflammatory activity of tested compound/ibuprofen): ratio of % inhibition of edema (compound / ibuprofen); ibuprofen = 1.00; conditions: for % Inhibition in Edema Thickness 1 h: 1 h after induction of inflammation; for % Inhibition in Edema Thickness 1 h / % Inhibition in Edema Thickness 2 h / % Inhibition in Edema Thickness 3 h: IP, dose molecularly equivalent to ibuprofen, n = 6; for % Inhibition in Edema Thickness 2 h: 2 h after induction of inflammation; for % Inhibition in Edema Thickness 3 h: 3 h after induction of inflammation; for Potency (anti-inflammatory activity of tested compound/ibuprofen): after 3 h of induction of inflammation, relative to ibuprofen; for anti-inflammatory activity (in words): compared with ibuprofen and parent compound 12
Description: The carrageenan-induced rat paw edema model was utilized to investigate the anti-inflammatory activity of compounds 12–19 relative to ibuprofen as a reference drug.
(§1) Adult albino rats of both sex weighing 100–140 g were used in evaluation of the anti-inflammatory, analgesic, ulcerogenic activity in addition to the histopathological study of the new pyrrolizines 12–19. Animal ethical use clearance was obtained from the Ethical Committee at the College of Pharmacy, Umm Al-Qura University. Normalization of the animals with laboratory conditions were achieved by keeping them in laboratory one week before starting the experiments. Standard rat pellet diet was used for feeding animals and water ad libitum.
The anti-inflammatory activity of the novel compounds 12–19 was evaluated in comparison with ibuprofen as a standard, using a rat paw edema model as described by Winter et al.. Adult albino rats of both sexes (100–140 gm) were used. Rats were uniformly hydrated by giving 3 mL water for each rat through gastric inoculation to reduce variability to edema response. Animals were then divided into groups of six animal each. The control group was given saline solution containing few drops of sodium carboxymethyl cellulose (CMC) 1% and DMSO. Ibuprofen (50 and 100 mg/kg) was given as standard drug. The new compounds 12–19 in a dose molecularly equivalent to ibuprofen were dissolved in 0.5 mL DMSO and CMC 1% was added dropwise with continuous triturating to complete the specified volume. The tested compounds were administered intraperitoneally (IP). The induction of inflammation was achieved by subcutaneous (SC) injection of carrageenan-sodium gel, into the sub-plantar region of the right hind paw. The dorsoventral diameter (thickness) of the right and left hind paw of each rat was measured using digital calipers with accuracy of 0.01 mm (Cole-Parmer, Vernon Hills, IL, USA). The thickness of edema was measured 1, 2 and 3 h after induction of inflammation. The left hind paw diameter served as a control for the degree of inflammation in the right hind paw. The changes in the edema thickness were expressed as mean ± SEM, Figure 4. The anti-inflammatory activity was calculated as % inhibition of inflammation = (1 − Lt/Lc) × 100. Where Lt is the mean increase in paw thickness in rats treated with the tested compounds and Lc is the mean increase in paw thickness in control group. Data were collected, and statistically analyzed by One way ANOVA followed by student-Newman-Keuls multiple comparison test, Table 2.

[4] = system: rat stomach mucosa; assay: Acute ulcerogenicity study; assay type: in vivo; conditions: oral, 0.48 mmol/kg; for Ulcerogenicity UI (ulcer index): three days, n = 6
Protocol: GIT toxicity is the main serious side effect of the NSAIDs. In this work, the ulcerogenicity of the novel compounds 12–19 was evaluated according to the previous reported methodology. The tested compounds 12–19 and ibuprofen were given orally in a dose of 0.48 mmol/kg.
as §1
GIT toxicity was evaluated according to the previous report. Adult albino rats of both sexes were divided into groups of six animals each. The test compounds were dissolved first in 0.5 mL DMSO, then CMC (1%) was added dropwise with trituration. Rats were fasted 20 h before drug administration. The eight tested compounds and ibuprofen were given orally in a dose of 0.24 and 0.48 mmol/kg/day suspended in 1% CMC, while the control group received vehicle (1% CMC containing few drops of DMSO). Rats were then fasted for 2 h, allowed to feed for 2 h then fasted again for another 20 h. Other doses were given in the second and third days. In the fourth day, Pentobarbital (60 mg/kg IP) was used to induce deep anesthesia then rats were sacrificed. The stomachs were removed, opened along with the greater curvature and rinsed with 0.9% saline. The number of mucosal damages (red spots) were counted using magnifying lens and their severity (ulcerogenic severity) was graded in a scale from 0 to 3 as follows: (0) normal (no injury), (0.5) red coloration, (1) spot ulcer, (1.5) hemorrhagic streaks, (2) ulcer > 3 mm, (3) ulcer > 5 mm. The ulcer index was calculated using the following equation ulcer index (UI) = UN + US + UP/10, where UN is the average number pf ulcers per animal, US is the average of severity score, UP is the percent of animal with ulcer.

[5] = molecular target: T1, COX-2 (human recombinant) (Homo sapiens, UniProt P35354); assay: COX colorimetric inhibitor screening assay, COX-2; conditions: for SI (COX-2 selectivity index = IC50 of COX-1/IC50 of COX-2): in vitro
T1 sequence (P35354 18-604): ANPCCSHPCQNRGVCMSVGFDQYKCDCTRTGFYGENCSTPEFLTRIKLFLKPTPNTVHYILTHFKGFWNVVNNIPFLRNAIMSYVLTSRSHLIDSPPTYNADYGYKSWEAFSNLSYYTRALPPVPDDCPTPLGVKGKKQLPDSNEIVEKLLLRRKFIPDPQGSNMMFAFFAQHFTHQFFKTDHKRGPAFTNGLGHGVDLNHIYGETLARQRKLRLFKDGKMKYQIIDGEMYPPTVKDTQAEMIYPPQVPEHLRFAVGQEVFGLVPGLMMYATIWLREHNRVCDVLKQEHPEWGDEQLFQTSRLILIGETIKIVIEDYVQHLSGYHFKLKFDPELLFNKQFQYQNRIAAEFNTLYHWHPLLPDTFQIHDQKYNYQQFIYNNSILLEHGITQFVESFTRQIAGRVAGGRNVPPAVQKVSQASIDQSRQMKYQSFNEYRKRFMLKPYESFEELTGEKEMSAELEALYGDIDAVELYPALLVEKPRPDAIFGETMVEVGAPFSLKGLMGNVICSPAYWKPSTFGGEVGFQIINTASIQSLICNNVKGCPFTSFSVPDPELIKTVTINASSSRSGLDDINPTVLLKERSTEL

[6] = molecular target: T2, COX-1 (ovine) (Ovis aries, UniProt P05979); assay: COX colorimetric inhibitor screening assay, COX-1
T2 sequence (P05979 25-600): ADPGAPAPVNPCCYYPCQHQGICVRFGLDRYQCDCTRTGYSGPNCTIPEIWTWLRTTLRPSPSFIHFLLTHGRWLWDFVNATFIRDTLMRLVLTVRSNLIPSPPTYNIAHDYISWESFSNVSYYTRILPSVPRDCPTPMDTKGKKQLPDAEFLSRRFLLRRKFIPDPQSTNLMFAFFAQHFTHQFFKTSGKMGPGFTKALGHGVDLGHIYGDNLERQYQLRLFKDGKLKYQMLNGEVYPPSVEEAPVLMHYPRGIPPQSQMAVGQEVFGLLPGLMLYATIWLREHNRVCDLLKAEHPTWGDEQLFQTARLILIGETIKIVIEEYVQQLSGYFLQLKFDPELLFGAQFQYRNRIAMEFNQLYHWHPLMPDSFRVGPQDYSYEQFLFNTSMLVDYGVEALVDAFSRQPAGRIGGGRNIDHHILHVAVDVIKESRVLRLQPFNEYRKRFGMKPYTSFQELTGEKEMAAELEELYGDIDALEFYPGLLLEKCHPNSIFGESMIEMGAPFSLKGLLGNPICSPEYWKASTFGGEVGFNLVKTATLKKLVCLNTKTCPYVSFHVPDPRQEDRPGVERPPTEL

Compound: N#Cc1c(N)c(C(=O)Nc2ccc(Br)cc2)n2c1CCC2 [Compound 12, 6-Amino-N-(4-bromophenyl)-7-cyano-2,3-dihydro-1H-pyrrolizine-5-carboxamide]
- analgesic potency relative to ibuprofen [1]: 1.03 to 1.27 times
- analgesic activity (in words) [1]: higher analgesic activity than ibuprofen
- histopathological findings in stomach transverse sections [2]: variable degrees of necrosis with some leukocytes infiltration
- % Inhibition in Edema Thickness 1 h [3]: 21.20%
- % Inhibition in Edema Thickness 2 h [3]: 37.40%
- % Inhibition in Edema Thickness 3 h [3]: 44.79%
- Potency (anti-inflammatory activity of tested compound/ibuprofen) [3]: 1.10
- anti-inflammatory activity (in words) [3]: higher anti-inflammatory activity than that of ibuprofen
- Ulcerogenicity UI (ulcer index) [4]: 4.66
- Ulcerogenicity % Protection (% inhibition of ulcer relative to ibuprofen) [4]: 66.38%
- IC50 [5]: 1270 nM
- SI (COX-2 selectivity index = IC50 of COX-1/IC50 of COX-2) [5]: 3.64
- IC50 [6]: 4640 nM

Compound: N#Cc1c(NC(=O)CCl)c(C(=O)Nc2ccc(Br)cc2)n2c1CCC2 [Compound 13, N-(4-Bromophenyl)-6-(2-chloroacetamido)-7-cyano-2,3-dihydro-1H-pyrrolizine-5-carboxamide]
- analgesic potency relative to ibuprofen [1]: 1.03 to 1.27 times
- analgesic activity (in words) [1]: higher analgesic activity than ibuprofen
- histopathological findings in stomach transverse sections [2]: variable degrees of necrosis with some leukocytes infiltration
- % Inhibition in Edema Thickness 1 h [3]: 16.13%
- % Inhibition in Edema Thickness 2 h [3]: 35.43%
- % Inhibition in Edema Thickness 3 h [3]: 52.31%
- Potency (anti-inflammatory activity of tested compound/ibuprofen) [3]: 1.28
- anti-inflammatory activity (in words) [3]: the highest anti-inflammatory activity
- Ulcerogenicity UI (ulcer index) [4]: 4.41
- Ulcerogenicity % Protection (% inhibition of ulcer relative to ibuprofen) [4]: 68.18%
- IC50 [5]: 1640 nM
- SI (COX-2 selectivity index = IC50 of COX-1/IC50 of COX-2) [5]: 3.48
- IC50 [6]: 5690 nM

Compound: CC(C)Cc1ccc(C(C)C(=O)O)cc1 (centres unmarked) [Ibuprofen, reference compound]
- histopathological findings in stomach transverse sections [2]: severe damage represented by leukocytes infiltration and necrosis in the mucosa layer with hypertrophy in mucosal glands
- % Inhibition in Edema Thickness 1 h [3]: 25.81%
- % Inhibition in Edema Thickness 2 h [3]: 33.46%
- % Inhibition in Edema Thickness 3 h [3]: 40.82%
- Potency (anti-inflammatory activity of tested compound/ibuprofen) [3]: 1.00
- Ulcerogenicity UI (ulcer index) [4]: 13.86
- Ulcerogenicity % Protection (% inhibition of ulcer relative to ibuprofen) [4]: 0%

Further lines, with some results ahead:

- IC50 [5]: 1090 nM
- SI (COX-2 selectivity index = IC50 of COX-1/IC50 of COX-2) [5]: 3.21
- IC50 [6]: 3500 nM
Compound: CN1CCN(CC(=O)Nc2c(C#N)c3n(c2C(=O)Nc2ccc(Br)cc2)CCC3)CC1 [Compound 14, N-(4-Bromophenyl)-7-cyano-6-(2-(4-methylpiperazin-1-yl)acetamido)-2,3-dihydro-1H-pyrrolizine-5-carbox-amide]
- analgesic activity (in words) [1]: lower than that of ibuprofen; also recorded: the least active
- histopathological findings in stomach transverse sections [2]: variable degrees of necrosis with some leukocytes infiltration
- % Inhibition in Edema Thickness 1 h [3]: 8.30%
- % Inhibition in Edema Thickness 2 h [3]: 9.84%
- % Inhibition in Edema Thickness 3 h [3]: 16.37%
- Potency (anti-inflammatory activity of tested compound/ibuprofen) [3]: 0.40
- anti-inflammatory activity (in words) [3]: the least active one
- Ulcerogenicity UI (ulcer index) [4]: 4.66
- Ulcerogenicity % Protection (% inhibition of ulcer relative to ibuprofen) [4]: 66.38%

- IC50 [5]: 1060 nM
- IC50 [6]: 3370 nM
Compound: N#Cc1c2c(n3c1CCC3)C(=O)N(c1ccc(Br)cc1)CC(=O)N2 [Compound 15, 4-(4-Bromophenyl)-2,5-dioxo-1,2,3,4,5,7,8,9-octahydro-[1,4]diazepino[5,6-b]pyrrolizine-10-carbonitrile]
- analgesic activity (in words) [1]: lower than that of ibuprofen
- histopathological findings in stomach transverse sections [2]: little histopathological effects such as congested blood vessels and variable degrees of leukocytes infiltration
- % Inhibition in Edema Thickness 1 h [3]: 10.60%
- % Inhibition in Edema Thickness 2 h [3]: 16.54%
- % Inhibition in Edema Thickness 3 h [3]: 24.91%
- Potency (anti-inflammatory activity of tested compound/ibuprofen) [3]: 0.61

- IC50 [5]: 850 nM
- SI (COX-2 selectivity index = IC50 of COX-1/IC50 of COX-2) [5]: 2.89
- IC50 [6]: 2450 nM
Compound: N#Cc1c(NC(=O)c2ccccc2)c(C(=O)Nc2ccc(Br)cc2)n2c1CCC2 [Compound 16, 6-Benzamido-N-(4-bromophenyl)-7-cyano-2,3-dihydro-1H-pyrrolizine-5-carboxamide]
- analgesic potency relative to ibuprofen [1]: 1.03 to 1.27 times
- analgesic activity (in words) [1]: higher analgesic activity than ibuprofen; also recorded: good activity comparable to that of ibuprofen
- histopathological findings in stomach transverse sections [2]: normal mucosal glands with no histopathological effects
- % Inhibition in Edema Thickness 1 h [3]: 29.95%
- % Inhibition in Edema Thickness 2 h [3]: 37.80%
- % Inhibition in Edema Thickness 3 h [3]: 50.58%
- Potency (anti-inflammatory activity of tested compound/ibuprofen) [3]: 1.24
- Ulcerogenicity UI (ulcer index) [4]: 2.26
- Ulcerogenicity % Protection (% inhibition of ulcer relative to ibuprofen) [4]: 83.69%
